Assay results as given in paper PMC10991105 (Bioresources and Bioprocessing, 2024).

Biological target: T1, tyrosinase
T1 construct: gene PPO1; tyrosinase of unstated source and supplier
Assay: L-tyrosine oxidation, absorbance at […] nm
Assay type: biochemical
Details: L-tyrosine substrate (0.1 mg/mL stock, 40 μL in 200 μL); PBS; 37 °C; 30 min

CCCCCCCCCCCC(=O)OC[C@H]1O[C@H](Oc2ccc(O)cc2)[C@H](O)[C@@H](O)[C@@H]1O [6′-O-lauroylarbutin]
IC50: 35 µM
